How the values were obtained:
Format in all cases: biochemical
[1] = target: T1, Itk (Homo sapiens, UniProt Q08881); assay: Kinase inhibition assay (33P transfer), Itk; conditions: Table 3, class symbols; read-out: Itk-1
T1 construct: Kinases are expressed as either kinase domains or full length constructs; made in house
T1 sequence (Q08881 1-620): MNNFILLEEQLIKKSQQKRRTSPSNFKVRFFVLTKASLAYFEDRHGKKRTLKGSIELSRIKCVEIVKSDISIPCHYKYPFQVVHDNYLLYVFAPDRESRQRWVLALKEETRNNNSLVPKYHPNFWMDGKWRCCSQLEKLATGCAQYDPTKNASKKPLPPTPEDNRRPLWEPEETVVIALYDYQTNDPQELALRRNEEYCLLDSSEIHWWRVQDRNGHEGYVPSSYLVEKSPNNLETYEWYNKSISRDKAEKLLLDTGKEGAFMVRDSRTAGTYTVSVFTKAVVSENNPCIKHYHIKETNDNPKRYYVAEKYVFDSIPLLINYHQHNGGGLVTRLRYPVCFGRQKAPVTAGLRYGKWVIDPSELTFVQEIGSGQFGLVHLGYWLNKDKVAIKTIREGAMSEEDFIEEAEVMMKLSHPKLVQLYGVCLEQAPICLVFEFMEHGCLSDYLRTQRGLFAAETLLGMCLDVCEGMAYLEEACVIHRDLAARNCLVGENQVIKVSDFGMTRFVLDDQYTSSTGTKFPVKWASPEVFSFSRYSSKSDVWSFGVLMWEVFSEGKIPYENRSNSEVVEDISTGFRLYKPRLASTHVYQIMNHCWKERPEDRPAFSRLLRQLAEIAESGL
How it was run: (§1)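 Each enzyme, purified to near homogeneity by affinity chromatography, was incubated with ATP carrying 33P and a substrate polymer fixed to the plate. Unbound label was removed with dilute phosphoric acid (0.5%) before adding scintillant and counting. Potency is given as the compound level cutting label uptake by 50%.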

[2] = target: T2, Lck (Homo sapiens, UniProt P06239); assay: Kinase inhibition assay (33P transfer), Lck; conditions: Table 3, class symbols; read-out: Lck-1
T2 construct: Kinases are expressed as either kinase domains or full length constructs; made in house
How it was run: (§2)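 Kinase domain or full-length constructs, GST- or polyHis-tagged, expressed in E. coli or baculovirus-High Five cells, sometimes with regulatory polypeptides. Activity measured as 33PO4 transfer from ATP to plate-bound poly(Glu,Tyr) 4:1 or poly(Arg,Ser) 3:1; after incubation, plates washed with 0.5% phosphoric acid and counted by liquid scintillation.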

[3] = target: T3, ErbB2 (Homo sapiens, UniProt P04626); assay: Kinase inhibition assay (33P transfer), ErbB2; conditions: read-out: ErbB2-2
T3 construct: Kinases are expressed as either kinase domains or full length constructs; made in house
How it was run: as §1

[4] = target: T4, IGFR-1 (Homo sapiens, UniProt P08069); assay: Kinase inhibition assay (33P transfer), IGFR-1; conditions: Table 2, class symbols A-E
T4 construct: Kinases are expressed as either kinase domains or full length constructs; made in house

[5] = target: T5, PDGFRB (Homo sapiens, UniProt P09619); assay: Kinase inhibition assay (33P transfer), PDGFRB; conditions: read-out: PDGFRB-1
T5 construct: Kinases are expressed as either kinase domains or full length constructs; made in house

[6] = target: T6, AKT (Homo sapiens, UniProt Q9Y243); assay: Kinase inhibition assay (33P transfer), AKT; conditions: Table 2, class symbols A-E; read-out: AKT3-1
T6 construct: Kinases are expressed as either kinase domains or full length constructs; made in house
How it was run: as §2

[7] = target: T7, Kdr (Homo sapiens, UniProt P35968); assay: Kinase inhibition assay (33P transfer), Kdr; conditions: Table 3, class symbols; read-out: KDR-1
T7 construct: Kinases are expressed as either kinase domains or full length constructs; made in house
How it was run: as §2

[8] = target: T8, c-Met (Homo sapiens, UniProt P08581); assay: Kinase inhibition assay (33P transfer), c-Met; conditions: Table 2, class symbols A-E; read-out: Met-1
T8 construct: Kinases are expressed as either kinase domains or full length constructs; made in house
How it was run: as §1

[9] = target: T9, EGFR (Homo sapiens, UniProt P00533); assay: Kinase inhibition assay (33P transfer), EGFR; conditions: Table 2, class symbols A-E; read-out: EGFR-1
T9 construct: Kinases are expressed as either kinase domains or full length constructs; made in house
How it was run: as §1

[10] = target: T10, Zap-70 (Homo sapiens, UniProt P43403); assay: Kinase inhibition assay (33P transfer), Zap-70; conditions: Table 3, class symbols; read-out: Zap-1
T10 construct: Kinases are expressed as either kinase domains or full length constructs; made in house
T10 sequence (P43403 1-619): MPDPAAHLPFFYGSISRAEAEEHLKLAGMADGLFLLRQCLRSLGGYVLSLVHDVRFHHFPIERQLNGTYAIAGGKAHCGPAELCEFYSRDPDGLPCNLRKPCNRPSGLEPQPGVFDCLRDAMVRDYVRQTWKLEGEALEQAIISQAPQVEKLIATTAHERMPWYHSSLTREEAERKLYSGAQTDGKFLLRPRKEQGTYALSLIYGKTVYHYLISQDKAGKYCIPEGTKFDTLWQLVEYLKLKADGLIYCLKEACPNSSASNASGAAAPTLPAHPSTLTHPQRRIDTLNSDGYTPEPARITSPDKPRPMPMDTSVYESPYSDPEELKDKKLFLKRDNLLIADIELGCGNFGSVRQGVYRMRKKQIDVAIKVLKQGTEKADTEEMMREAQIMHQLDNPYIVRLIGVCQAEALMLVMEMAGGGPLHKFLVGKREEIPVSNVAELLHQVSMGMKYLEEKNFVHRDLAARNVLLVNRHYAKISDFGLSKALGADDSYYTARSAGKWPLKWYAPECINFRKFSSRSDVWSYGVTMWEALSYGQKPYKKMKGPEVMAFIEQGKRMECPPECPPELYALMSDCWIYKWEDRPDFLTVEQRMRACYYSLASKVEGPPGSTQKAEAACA
How it was run: as §2

T9 sequence (P00533 25-1210, species assumed): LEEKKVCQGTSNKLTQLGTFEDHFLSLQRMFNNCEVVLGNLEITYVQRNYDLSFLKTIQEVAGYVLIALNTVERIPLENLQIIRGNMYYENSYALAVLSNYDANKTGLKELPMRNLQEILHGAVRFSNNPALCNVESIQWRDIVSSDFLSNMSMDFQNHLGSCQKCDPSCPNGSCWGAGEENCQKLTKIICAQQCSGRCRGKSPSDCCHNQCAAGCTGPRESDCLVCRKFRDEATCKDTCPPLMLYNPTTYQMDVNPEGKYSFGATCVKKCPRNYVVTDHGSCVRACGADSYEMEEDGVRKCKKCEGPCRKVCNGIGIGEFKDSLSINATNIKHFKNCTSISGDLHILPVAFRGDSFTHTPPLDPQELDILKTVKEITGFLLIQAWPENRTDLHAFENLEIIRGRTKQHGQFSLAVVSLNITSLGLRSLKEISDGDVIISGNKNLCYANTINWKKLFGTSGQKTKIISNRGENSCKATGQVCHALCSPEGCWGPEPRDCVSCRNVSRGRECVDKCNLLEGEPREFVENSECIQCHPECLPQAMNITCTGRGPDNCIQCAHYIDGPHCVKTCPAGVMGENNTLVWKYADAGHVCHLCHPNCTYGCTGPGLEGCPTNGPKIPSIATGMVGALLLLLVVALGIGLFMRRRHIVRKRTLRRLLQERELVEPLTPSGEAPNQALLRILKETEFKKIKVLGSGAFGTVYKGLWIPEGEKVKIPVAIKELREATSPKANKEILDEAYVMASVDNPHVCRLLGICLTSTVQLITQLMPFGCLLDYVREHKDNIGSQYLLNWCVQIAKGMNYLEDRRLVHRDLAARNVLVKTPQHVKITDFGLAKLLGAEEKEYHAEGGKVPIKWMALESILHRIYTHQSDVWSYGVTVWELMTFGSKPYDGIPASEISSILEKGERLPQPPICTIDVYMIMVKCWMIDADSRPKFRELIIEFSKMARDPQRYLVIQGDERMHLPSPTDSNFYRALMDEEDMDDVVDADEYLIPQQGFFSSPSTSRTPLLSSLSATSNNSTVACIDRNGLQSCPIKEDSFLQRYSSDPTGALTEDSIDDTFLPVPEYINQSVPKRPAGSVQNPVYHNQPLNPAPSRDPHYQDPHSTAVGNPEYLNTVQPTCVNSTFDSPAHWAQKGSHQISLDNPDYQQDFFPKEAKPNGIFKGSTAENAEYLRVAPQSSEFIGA
T3 sequence (P04626 23-1255, species assumed): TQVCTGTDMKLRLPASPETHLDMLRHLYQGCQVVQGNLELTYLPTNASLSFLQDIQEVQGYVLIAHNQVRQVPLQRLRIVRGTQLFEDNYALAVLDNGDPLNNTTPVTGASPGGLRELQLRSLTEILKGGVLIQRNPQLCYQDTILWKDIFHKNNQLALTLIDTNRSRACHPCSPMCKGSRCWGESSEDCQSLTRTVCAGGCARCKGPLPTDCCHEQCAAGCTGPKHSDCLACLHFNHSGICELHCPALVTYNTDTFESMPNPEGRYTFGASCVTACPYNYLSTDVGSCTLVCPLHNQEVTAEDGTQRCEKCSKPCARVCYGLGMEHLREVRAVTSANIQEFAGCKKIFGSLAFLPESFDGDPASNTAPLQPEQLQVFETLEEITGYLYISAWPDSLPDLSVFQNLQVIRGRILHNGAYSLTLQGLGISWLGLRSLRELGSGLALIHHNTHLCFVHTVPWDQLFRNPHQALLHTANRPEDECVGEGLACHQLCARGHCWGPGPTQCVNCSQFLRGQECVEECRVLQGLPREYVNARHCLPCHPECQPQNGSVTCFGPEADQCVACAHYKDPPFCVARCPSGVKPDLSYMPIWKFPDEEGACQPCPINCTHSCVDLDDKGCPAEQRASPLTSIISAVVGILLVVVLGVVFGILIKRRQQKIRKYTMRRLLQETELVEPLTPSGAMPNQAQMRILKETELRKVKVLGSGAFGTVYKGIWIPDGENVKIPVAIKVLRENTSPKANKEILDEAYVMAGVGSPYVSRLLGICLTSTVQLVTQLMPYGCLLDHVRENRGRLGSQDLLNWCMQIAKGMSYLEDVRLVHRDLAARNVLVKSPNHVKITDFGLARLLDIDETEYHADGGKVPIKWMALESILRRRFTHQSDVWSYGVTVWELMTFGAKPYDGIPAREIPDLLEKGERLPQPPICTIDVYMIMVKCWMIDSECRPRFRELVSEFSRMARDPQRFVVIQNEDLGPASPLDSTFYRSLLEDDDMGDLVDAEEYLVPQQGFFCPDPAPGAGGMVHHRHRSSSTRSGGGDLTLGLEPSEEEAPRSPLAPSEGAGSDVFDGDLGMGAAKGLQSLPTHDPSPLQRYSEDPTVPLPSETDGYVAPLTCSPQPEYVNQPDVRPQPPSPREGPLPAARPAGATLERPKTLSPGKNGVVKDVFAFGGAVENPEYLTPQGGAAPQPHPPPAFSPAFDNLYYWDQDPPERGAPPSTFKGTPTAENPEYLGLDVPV
T7 sequence (P35968 20-1356, species assumed): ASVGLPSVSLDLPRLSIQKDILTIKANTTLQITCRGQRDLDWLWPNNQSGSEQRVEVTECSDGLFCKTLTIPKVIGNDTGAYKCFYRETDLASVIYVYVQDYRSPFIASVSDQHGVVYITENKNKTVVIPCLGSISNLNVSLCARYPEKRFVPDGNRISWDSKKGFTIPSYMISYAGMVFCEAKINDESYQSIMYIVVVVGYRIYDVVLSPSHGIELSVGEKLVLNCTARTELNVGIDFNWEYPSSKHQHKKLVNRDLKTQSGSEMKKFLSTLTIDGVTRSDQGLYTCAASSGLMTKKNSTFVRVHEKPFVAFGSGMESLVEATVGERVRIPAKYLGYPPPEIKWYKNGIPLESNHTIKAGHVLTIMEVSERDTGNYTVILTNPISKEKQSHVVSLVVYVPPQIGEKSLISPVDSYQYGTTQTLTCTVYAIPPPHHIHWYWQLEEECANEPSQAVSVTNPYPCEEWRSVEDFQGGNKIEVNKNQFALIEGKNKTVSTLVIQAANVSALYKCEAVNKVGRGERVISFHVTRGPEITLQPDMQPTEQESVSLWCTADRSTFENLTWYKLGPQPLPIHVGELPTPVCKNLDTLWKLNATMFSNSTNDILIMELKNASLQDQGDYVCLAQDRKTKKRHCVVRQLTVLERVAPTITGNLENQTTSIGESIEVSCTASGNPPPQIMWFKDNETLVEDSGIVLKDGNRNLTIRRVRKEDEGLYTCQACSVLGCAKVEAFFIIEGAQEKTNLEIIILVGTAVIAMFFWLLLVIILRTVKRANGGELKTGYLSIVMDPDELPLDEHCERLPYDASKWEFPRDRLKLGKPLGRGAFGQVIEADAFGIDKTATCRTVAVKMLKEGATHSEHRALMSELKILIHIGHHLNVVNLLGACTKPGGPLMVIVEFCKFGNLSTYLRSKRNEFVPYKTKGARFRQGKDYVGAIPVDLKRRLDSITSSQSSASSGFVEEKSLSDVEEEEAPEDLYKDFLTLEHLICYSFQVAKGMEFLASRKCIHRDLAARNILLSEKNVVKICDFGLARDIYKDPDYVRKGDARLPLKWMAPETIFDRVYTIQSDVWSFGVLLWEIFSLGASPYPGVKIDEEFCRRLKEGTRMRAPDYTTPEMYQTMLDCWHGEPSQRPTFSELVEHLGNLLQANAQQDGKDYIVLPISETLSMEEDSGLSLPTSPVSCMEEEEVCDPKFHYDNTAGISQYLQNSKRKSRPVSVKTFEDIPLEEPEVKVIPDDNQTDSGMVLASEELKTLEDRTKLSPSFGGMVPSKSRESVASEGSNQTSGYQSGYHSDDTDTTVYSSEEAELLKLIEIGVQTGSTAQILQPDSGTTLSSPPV
T5 sequence (P09619 33-1106, species assumed): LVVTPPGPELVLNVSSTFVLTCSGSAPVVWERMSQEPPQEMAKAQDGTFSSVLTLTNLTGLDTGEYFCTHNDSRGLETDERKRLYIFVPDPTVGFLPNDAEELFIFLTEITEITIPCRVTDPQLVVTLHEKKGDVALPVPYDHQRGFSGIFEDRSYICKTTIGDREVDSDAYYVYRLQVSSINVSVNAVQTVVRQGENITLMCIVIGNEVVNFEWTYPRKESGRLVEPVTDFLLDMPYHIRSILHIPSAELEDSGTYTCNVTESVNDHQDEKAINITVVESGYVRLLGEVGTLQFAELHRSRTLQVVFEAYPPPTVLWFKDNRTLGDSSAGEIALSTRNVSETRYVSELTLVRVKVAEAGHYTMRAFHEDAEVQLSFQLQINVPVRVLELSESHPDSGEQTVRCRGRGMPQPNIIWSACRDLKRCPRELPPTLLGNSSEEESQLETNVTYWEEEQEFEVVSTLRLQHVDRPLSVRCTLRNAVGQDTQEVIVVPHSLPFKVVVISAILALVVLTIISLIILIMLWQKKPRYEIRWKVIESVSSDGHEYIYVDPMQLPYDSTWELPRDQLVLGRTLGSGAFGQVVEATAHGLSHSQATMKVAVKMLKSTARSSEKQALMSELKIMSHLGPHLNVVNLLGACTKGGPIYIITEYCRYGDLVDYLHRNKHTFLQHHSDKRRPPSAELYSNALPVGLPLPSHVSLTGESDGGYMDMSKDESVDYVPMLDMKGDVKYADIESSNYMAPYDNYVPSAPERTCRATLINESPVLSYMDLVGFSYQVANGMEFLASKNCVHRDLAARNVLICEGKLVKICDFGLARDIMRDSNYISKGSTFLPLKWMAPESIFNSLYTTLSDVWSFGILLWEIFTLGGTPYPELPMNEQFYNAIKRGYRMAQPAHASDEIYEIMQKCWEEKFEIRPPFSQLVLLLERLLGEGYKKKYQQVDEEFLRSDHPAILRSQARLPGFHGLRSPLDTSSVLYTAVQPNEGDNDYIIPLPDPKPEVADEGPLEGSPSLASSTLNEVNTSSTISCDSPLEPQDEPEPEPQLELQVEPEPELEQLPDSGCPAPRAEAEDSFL

COc1ccc(Nc2ncnc(Nc3ccc(N4CCCCC4)cc3)n2)cc1OC [Compound 899]
IC50 [1]: 0.984 to 5.9 µM
IC50 [2]: 0.984 to 5.9 µM
IC50 [3]: 0.984 to 5.9 µM
IC50 [4]: 5.9 to 8.61 µM
IC50 [5]: < 0.984 µM
IC50 [6]: 5.9 to 8.61 µM
IC50 [7]: 0.984 to 5.9 µM
IC50 [8]: 0.984 to 5.9 µM
IC50 [9]: 0.984 to 5.9 µM
IC50 [10]: > 11.1 µM

FC(F)(F)Sc1cccc(Nc2ncnc(Nc3cc(-c4ccco4)[nH]n3)n2)c1 [Compound 827]
IC50 [1]: 0.954 to 5.72 µM
IC50 [2]: 0.954 to 5.72 µM
IC50 [3]: < 0.954 µM
IC50 [4]: 0.954 to 5.72 µM
IC50 [5]: 0.954 to 5.72 µM
IC50 [6]: 8.35 to 10.7 µM
IC50 [7]: 0.954 to 5.72 µM
IC50 [8]: 0.954 to 5.72 µM
IC50 [9]: < 0.954 µM
IC50 [10]: 0.954 to 5.72 µM

CCOc1ccc(Nc2ncnc(Nc3cc(-c4ccc(C(=O)OC)cc4)n[nH]3)n2)cc1 [Compound 879]
IC50 [1]: 8.11 to 10.4 µM
IC50 [2]: > 10.4 µM
IC50 [3]: > 10.4 µM
IC50 [4]: 5.56 to 8.11 µM
IC50 [5]: 0.927 to 5.56 µM
IC50 [6]: > 10.4 µM
IC50 [7]: > 10.4 µM
IC50 [8]: 0.927 to 5.56 µM
IC50 [9]: 0.927 to 5.56 µM
IC50 [10]: > 10.4 µM

COc1ccc(Nc2ncnc(Nc3cccc(C#N)c3)n2)cc1OC [Compound 897]
IC50 [1]: 6.89 to 10 µM
IC50 [2]: > 12.9 µM
IC50 [3]: > 12.9 µM
IC50 [4]: > 12.9 µM
IC50 [5]: < 1.15 µM
IC50 [6]: > 12.9 µM
IC50 [7]: > 12.9 µM
IC50 [8]: > 12.9 µM
IC50 [9]: < 1.15 µM
IC50 [10]: > 12.9 µM

CCOc1cccc(Nc2ncnc(N3CCCc4cc(C)ccc43)n2)c1 [Compound 892]
IC50 [1]: 9.68 to 12.4 µM
IC50 [2]: 1.11 to 6.64 µM
IC50 [3]: 1.11 to 6.64 µM
IC50 [4]: > 12.4 µM
IC50 [5]: < 1.11 µM
IC50 [6]: > 12.4 µM
IC50 [7]: 1.11 to 6.64 µM
IC50 [8]: 1.11 to 6.64 µM
IC50 [9]: < 1.11 µM
IC50 [10]: > 12.4 µM

COc1cc(Nc2ncnc(-c3cccnc3NC3CCc4ccccc43)n2)cc(OC)c1OC (stereo not drawn) [Compound 846]
IC50 [1]: > 9.56 µM
IC50 [2]: 0.85 to 5.1 µM
IC50 [3]: 5.1 to 7.44 µM
IC50 [4]: > 9.56 µM
IC50 [5]: 0.85 to 5.1 µM
IC50 [6]: > 9.56 µM
IC50 [7]: 0.85 to 5.1 µM
IC50 [8]: > 9.56 µM
IC50 [9]: 5.1 to 7.44 µM
IC50 [10]: > 9.56 µM

O=S(=O)(O)c1cccc(Nc2ncnc(Nc3cc(-c4ccco4)[nH]n3)n2)c1 [Compound 825]
IC50 [1]: 1 to 6.01 µM
IC50 [2]: 8.76 to 11.3 µM
IC50 [3]: 1 to 6.01 µM
IC50 [4]: 1 to 6.01 µM
IC50 [5]: 1 to 6.01 µM
IC50 [6]: 1 to 6.01 µM
IC50 [7]: < 1 µM
IC50 [8]: 1 to 6.01 µM
IC50 [9]: < 1 µM
IC50 [10]: 6.01 to 8.76 µM

FC(F)(F)Oc1ccc(Nc2ncnc(Nc3ccc4c(cnn4Cc4ccccc4)c3)n2)cc1 [Compound 906]
IC50 [1]: > 9.43 µM
IC50 [2]: > 9.43 µM
IC50 [3]: 0.838 to 5.03 µM
IC50 [4]: 5.03 to 7.33 µM
IC50 [5]: > 9.43 µM
IC50 [6]: 0.838 to 5.03 µM
IC50 [7]: 0.838 to 5.03 µM
IC50 [8]: 0.838 to 5.03 µM
IC50 [9]: 0.838 to 5.03 µM
IC50 [10]: > 9.43 µM

COc1ccc(Nc2ncnc(N(C)c3ccccc3)n2)cc1OC [Compound 797]
IC50 [1]: > 13.3 µM
IC50 [2]: 1.19 to 7.11 µM
IC50 [3]: 1.19 to 7.11 µM
IC50 [4]: 7.11 to 10.4 µM
IC50 [5]: 7.11 to 10.4 µM
IC50 [6]: > 13.3 µM
IC50 [7]: 1.19 to 7.11 µM
IC50 [8]: 1.19 to 7.11 µM
IC50 [9]: < 1.19 µM
IC50 [10]: > 13.3 µM

c1ccc(CNc2ncnc(Nc3cc(-c4ccco4)n[nH]3)n2)nc1 [Compound 995]
IC50 [1]: 10.5 to 13.5 µM
IC50 [2]: > 13.5 µM
IC50 [3]: > 13.5 µM
IC50 [4]: 7.18 to 10.5 µM
IC50 [5]: 1.2 to 7.18 µM
IC50 [6]: > 13.5 µM
IC50 [7]: 7.18 to 10.5 µM
IC50 [8]: > 13.5 µM
IC50 [9]: 1.2 to 7.18 µM
IC50 [10]: > 13.5 µM

CCOc1cccc(Nc2ncnc(Nc3cc(-c4ccc(C(=O)OC)cc4)n[nH]3)n2)c1 [Compound 812]
IC50 [1]: 8.11 to 10.4 µM
IC50 [2]: 0.927 to 5.56 µM
IC50 [3]: 5.56 to 8.11 µM
IC50 [4]: 0.927 to 5.56 µM
IC50 [5]: > 10.4 µM
IC50 [6]: > 10.4 µM
IC50 [7]: 8.11 to 10.4 µM
IC50 [8]: 0.927 to 5.56 µM
IC50 [9]: > 10.4 µM
IC50 [10]: > 10.4 µM

COC(=O)c1ccc(-c2cc(Nc3ncnc(NCc4cccnc4)n3)[nH]n2)cc1 [Compound 809]
IC50 [1]: 0.994 to 5.96 µM
IC50 [2]: > 11.2 µM
IC50 [3]: 8.7 to 11.2 µM
IC50 [4]: 5.96 to 8.7 µM
IC50 [5]: 8.7 to 11.2 µM
IC50 [6]: 8.7 to 11.2 µM
IC50 [7]: > 11.2 µM
IC50 [8]: 5.96 to 8.7 µM
IC50 [9]: > 11.2 µM
IC50 [10]: > 11.2 µM

From patent US7074789B2, “Kinase inhibitors” (Amgen Inc., priority 1999, dated 2006)
